Calls of active or inactive are those of the source.
Tests used:
[1] = target: T1, High affinity choline transporter 1 (Homo sapiens, UniProt Q9GZV3); test: CHT inhibitors, dose response, cell-based, 5-point CRC, membrane potential dye (AID 504840); format: functional
T1 sequence (Q9GZV3 whole entry): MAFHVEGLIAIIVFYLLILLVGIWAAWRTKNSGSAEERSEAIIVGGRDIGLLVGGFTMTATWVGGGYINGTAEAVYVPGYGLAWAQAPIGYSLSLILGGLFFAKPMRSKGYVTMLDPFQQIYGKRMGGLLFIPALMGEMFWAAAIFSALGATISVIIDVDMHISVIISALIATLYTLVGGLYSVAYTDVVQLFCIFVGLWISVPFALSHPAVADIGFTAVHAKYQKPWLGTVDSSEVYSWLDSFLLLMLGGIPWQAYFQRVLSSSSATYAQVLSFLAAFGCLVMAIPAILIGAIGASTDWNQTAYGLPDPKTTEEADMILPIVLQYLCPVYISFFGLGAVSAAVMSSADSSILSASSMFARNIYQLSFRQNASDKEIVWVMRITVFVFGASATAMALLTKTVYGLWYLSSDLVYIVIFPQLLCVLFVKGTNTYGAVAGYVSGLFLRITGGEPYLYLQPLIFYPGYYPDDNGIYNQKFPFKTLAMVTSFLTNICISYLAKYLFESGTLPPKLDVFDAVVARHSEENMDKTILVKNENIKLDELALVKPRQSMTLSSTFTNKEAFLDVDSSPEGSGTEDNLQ

H9c2 = test: cells; format: functional, cell-based; details: Rattus norvegicus, H9c2, Myocardium;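 further: confirmatory concentration-response retest of ultra-high-throughput screening hits for modulation of myocardial damage; cell death induced by hydrogen peroxide oxidative stress; compound pretreatment for 60 min then peroxide exposure for 2 h; potency is for protecting the cells against peroxide damage rather than for killing them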
[2] = target: T2, Ubiquitin-conjugating enzyme E2 N (Homo sapiens, UniProt P61088); format: functional;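 further: Dose-response confirmation in a TR-FRET assay detecting UBC13-driven polyubiquitin chain formation, inhibition measured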
T2 sequence (P61088 whole entry): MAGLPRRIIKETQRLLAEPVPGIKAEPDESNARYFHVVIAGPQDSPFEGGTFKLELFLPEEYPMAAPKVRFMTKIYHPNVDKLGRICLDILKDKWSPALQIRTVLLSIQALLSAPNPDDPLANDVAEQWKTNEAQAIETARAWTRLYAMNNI

[3] = target: Induced myeloid leukemia cell differentiation protein Mcl-1 (Homo sapiens, UniProt Q07820); format: functional
Sequence of Induced myeloid leukemia cell differentiation protein Mcl-1 (Q07820 whole entry): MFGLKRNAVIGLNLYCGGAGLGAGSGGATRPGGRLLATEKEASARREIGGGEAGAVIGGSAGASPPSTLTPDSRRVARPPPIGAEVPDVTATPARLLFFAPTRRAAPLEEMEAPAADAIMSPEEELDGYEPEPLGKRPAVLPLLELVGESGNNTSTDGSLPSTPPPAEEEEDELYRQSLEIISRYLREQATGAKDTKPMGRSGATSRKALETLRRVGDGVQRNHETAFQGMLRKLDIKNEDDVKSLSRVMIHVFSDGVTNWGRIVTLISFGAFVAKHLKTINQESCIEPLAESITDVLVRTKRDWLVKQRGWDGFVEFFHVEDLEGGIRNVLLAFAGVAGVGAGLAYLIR

[4] = target: T3, Short transient receptor potential channel 4 (Mus musculus, UniProt Q9QUQ5); test: mouse TRPC4 channel inhibitors, dose response, cell-based, HEK293 TRPC4/mu-opioid, Fluo-4 calcium (AID 434942); format: functional;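 further: potency of inhibitors blocking the TRPC4 calcium response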
T3 sequence (Q9QUQ5 whole entry): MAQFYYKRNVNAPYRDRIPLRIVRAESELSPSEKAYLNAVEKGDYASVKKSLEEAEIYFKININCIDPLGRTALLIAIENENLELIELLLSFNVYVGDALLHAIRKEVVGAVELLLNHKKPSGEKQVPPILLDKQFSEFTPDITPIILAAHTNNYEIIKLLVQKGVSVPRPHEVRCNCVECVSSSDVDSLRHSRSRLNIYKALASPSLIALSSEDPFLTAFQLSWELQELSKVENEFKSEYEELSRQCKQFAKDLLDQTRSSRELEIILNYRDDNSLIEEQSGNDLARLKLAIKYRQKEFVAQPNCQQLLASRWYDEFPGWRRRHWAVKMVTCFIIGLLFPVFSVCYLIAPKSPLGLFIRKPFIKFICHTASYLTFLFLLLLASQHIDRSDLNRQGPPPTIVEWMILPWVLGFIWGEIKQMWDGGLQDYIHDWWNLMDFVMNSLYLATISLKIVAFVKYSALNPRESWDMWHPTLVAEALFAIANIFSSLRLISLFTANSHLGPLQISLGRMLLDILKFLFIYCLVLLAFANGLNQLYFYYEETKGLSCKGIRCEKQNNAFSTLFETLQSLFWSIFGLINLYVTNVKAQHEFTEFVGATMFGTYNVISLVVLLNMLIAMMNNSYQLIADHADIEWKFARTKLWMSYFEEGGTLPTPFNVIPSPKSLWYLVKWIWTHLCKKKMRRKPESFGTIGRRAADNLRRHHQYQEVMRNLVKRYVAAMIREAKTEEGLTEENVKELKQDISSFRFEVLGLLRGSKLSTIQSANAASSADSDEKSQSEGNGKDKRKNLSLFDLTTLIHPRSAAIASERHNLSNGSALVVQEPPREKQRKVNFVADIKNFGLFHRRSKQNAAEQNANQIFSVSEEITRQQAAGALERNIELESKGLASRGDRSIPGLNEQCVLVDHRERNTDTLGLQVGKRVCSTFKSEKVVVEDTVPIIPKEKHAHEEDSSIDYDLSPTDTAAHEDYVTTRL

[5] = target: T4, Carboxy-terminal domain RNA polymerase II polypeptide A small phosphatase 1 (Homo sapiens, UniProt Q9GZU7); test: inhibitors of CTDSP1, concentration-response testing, biochemical assay, absorbance-based, actives from ultra-high-throughput screening (AID 540297); format: functional
T4 sequence (Q9GZU7 whole entry): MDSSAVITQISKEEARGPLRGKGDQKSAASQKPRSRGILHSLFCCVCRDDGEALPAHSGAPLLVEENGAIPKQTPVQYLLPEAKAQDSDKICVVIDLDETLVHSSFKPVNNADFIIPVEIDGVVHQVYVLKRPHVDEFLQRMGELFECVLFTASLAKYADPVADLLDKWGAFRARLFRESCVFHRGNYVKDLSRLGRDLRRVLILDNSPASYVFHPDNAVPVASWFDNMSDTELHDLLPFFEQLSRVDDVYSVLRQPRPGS

[6] = growth suppression of PTEN-null colon cells, dose response, cell-based, HCT116 PTEN knockout (AID 1047); format: functional;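 further: HCT116 colon tumor cells with PTEN knocked out; cells exposed to compound for 60 hours before readout; potency for loss of cell viability measured by luminescence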
[7] = growth suppression of beta-catenin-knockout colon cells, dose response, cell-based, HCT116, human colon tumor (AID 1045); format: functional;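 further: HCT116 colon tumor cells with beta catenin knocked out; cells exposed to compound for 60 hours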
Vero = test: cells; format: functional; details: Chlorocebus sabaeus
CHO = test: cytotoxicity in TLR9-MyD88 CHO cells, dose response, cytotoxicity control for TLR9-MyD88 binding inhibitor project, cell-based, luminescence (AID 588339); format: functional, hamster; details: Cricetulus griseus;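 further: CHO cells stably coexpressing TLR9 and MyD88 fusions from primary screen; compound exposure lasted 48 hours before viability readout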
cells = format: functional
Fatty acid synthase [8] = target: T5, Fatty acid synthase (Homo sapiens, UniProt P49327); test: FAS thioesterase domain inhibitors, dose response, biochemical, endpoint fluorescence intensity, uHTS hits (AID 624327); format: functional;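 further: fluorescence from hydrolysis of an O-methyl fluorescein acyl ester substrate by the enzyme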
T5 sequence (P49327 whole entry, the tested form may be a part): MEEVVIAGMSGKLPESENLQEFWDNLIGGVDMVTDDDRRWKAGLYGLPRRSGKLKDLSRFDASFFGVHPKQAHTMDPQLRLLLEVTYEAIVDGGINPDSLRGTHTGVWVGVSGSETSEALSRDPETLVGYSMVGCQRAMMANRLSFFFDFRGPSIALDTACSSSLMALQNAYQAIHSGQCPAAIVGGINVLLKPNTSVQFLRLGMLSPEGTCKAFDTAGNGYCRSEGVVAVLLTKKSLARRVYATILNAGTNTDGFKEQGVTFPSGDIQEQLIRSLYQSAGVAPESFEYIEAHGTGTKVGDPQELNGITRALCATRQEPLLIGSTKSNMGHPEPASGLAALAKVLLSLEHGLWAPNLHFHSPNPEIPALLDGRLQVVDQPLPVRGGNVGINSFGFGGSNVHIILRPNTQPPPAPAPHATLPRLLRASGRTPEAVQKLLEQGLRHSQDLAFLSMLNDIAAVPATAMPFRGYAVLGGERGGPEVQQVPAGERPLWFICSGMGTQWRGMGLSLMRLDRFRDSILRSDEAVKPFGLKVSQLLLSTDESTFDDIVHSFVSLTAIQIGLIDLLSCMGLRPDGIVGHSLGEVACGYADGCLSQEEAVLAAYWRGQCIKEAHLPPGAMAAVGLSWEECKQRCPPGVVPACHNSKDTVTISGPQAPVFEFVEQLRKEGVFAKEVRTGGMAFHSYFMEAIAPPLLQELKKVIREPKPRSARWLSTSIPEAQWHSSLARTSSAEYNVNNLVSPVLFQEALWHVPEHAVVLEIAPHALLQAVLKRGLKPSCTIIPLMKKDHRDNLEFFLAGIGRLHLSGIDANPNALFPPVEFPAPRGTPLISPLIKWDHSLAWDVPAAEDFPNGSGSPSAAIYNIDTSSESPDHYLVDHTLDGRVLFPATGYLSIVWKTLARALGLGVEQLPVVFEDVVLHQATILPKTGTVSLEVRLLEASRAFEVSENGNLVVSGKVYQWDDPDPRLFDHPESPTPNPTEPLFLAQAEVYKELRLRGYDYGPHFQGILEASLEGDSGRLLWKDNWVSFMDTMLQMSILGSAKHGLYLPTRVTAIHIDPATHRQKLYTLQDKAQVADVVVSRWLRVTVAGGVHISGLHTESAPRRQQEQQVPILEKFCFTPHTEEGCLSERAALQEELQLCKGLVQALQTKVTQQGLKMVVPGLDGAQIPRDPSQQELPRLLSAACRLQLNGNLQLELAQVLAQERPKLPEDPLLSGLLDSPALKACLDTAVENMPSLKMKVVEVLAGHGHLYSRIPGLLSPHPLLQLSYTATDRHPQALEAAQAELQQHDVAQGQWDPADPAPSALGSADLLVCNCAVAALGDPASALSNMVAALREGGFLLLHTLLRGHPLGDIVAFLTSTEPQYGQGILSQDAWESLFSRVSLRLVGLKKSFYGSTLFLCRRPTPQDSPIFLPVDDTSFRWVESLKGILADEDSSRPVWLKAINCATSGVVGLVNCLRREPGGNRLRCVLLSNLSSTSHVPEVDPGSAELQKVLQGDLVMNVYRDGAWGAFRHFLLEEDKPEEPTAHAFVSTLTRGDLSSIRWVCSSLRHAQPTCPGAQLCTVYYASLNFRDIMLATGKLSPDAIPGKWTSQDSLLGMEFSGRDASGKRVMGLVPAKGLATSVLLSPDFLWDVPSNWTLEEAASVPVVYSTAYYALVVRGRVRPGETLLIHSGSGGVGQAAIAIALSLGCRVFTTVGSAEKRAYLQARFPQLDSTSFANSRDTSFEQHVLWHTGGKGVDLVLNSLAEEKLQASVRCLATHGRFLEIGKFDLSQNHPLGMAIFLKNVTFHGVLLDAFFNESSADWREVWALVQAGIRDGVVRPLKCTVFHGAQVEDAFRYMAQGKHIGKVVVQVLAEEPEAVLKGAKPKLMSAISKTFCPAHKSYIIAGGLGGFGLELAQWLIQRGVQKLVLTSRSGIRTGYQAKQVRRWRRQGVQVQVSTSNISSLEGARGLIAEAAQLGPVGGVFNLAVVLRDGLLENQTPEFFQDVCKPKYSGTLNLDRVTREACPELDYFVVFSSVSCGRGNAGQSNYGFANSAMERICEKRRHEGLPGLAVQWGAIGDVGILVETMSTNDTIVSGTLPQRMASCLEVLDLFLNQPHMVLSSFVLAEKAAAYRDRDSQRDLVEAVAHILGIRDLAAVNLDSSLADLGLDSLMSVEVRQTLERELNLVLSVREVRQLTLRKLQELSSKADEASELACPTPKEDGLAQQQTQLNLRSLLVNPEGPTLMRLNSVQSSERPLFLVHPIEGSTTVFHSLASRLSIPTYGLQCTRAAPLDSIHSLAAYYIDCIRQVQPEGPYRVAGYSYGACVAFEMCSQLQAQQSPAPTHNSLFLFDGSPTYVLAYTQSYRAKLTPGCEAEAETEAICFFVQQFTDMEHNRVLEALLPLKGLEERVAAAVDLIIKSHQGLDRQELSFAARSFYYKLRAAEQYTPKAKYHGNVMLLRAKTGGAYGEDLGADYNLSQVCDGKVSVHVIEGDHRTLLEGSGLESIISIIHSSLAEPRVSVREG

Fatty acid synthase [9] = target: T5, Fatty acid synthase; test: FAS thioesterase domain inhibitors, dose response, biochemical, kinetic fluorescence intensity (AID 624326); format: functional;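 further: rate of fluorescence rise from hydrolysis of a fluorogenic O-methyl fluorescein ester substrate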
HEK293 = test: inhibitors of LMP1-driven NF-kB reporter, dose response, cell-based, HEK293, luciferase, cherry-pick (AID 588343); format: functional; details: Homo sapiens
P388/ADR = test: cells; format: functional; details: Mus musculus
SN12K1 = test: cells; format: functional; details: Homo sapiens
P388 = test: cells; format: functional; details: Mus musculus
Paired box protein Pax-8 = Paired box protein Pax-8 (Homo sapiens, UniProt Q06710); test: inhibitors of PAX8-driven TPO luciferase reporter, dose response, RMG-I cells, cherry-pick (AID 687027); format: functional, cell-based;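 further: luciferase reporter driven by Pax8 target thyroperoxidase promoter measured by SteadyGlo luminescence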
Sequence of Paired box protein Pax-8 (Q06710 whole entry, the tested form may be a part): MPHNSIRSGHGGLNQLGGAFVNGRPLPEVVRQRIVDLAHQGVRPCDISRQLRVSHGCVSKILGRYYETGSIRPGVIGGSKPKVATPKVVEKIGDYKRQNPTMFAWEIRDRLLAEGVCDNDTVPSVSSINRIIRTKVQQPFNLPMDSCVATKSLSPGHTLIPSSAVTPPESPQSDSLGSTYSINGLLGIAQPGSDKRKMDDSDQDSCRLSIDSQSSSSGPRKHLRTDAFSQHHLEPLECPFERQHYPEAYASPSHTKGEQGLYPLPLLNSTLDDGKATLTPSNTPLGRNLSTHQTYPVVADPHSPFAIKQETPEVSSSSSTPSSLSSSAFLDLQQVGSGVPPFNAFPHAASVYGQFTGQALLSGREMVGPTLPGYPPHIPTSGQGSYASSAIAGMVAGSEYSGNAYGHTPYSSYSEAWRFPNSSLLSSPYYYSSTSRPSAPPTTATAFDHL

[10] = inhibitors of HIV Env-driven cell fusion, dose response, cherry-pick (AID 652057); format: functional, cell-based
[11] = inhibitors of clade B AD8 Env fusion, dose response, cell-based, cherry-pick (AID 652062); format: functional;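 further: luciferase signal from cell-cell fusion driven by HIV-1 clade B AD8 Env; potency is for inhibitors of fusion seen as a drop in luminescence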

With `COc1cc(NC(=O)c2csc(-c3ccncc3)n2)cc(C(=O)Nc2cccc(C(F)(F)F)c2)c1` the IC50 [1] was 6.44 µM (active) and the IC50 (H9c2) was > 79 µM (inactive).

With `O=C1c2cccc3cccc(c23)C(=O)N1CCN1CCN(CC(O)COc2ccccc2)CC1` (stereo unspecified) the IC50 [2] was > 20 µM (inactive).

With `O=C(Nc1ccccc1Cl)c1cnccn1` the IC50 [3] was 8.55 µM (not active).

In the case of `COC(=O)c1cccc(NC(S)=Nc2cccc(Cl)c2Cl)c1`, the EC50 [4] is reported as 8.41 µM (active).

For `CC(=O)N(c1ccc(Cl)cc1)c1c[nH]c2ccccc12`, the EC50 [4] was 18.8 µM (active).

For `Cc1ccc(O)c(C(=O)c2cnn(C(=O)COc3ccc(Cl)cc3)c2)c1`, the IC50 [5] was 3.89 µM (active).

With `CN(CCNC(=O)CCCOc1cc(=O)n(C)c2ccccc12)Cc1ccccc1` the IC50 [2] was > 20 µM (inactive).

In the case of `O=C(COC(=O)c1ccccc1NCCO)Nc1cccc(S(=O)(=O)NC2=NCCCCC2)c1`, the IC50 [5] is reported as 10.2 µM (active).

In the case of `COc1cccc(C(=O)Nc2ccc3nc(N4CCN(c5ncccn5)CC4)cc(C)c3c2)c1OC`, the EC50 [6] is reported as 5.74 µM (active), the EC50 [7] is reported as 6.95 µM (active) and the IC50 [3] is reported as 5.6 µM (active).

With `O=C(C[n+]1cc(Br)cc2ccccc21)c1ccc(Br)cc1` the IC50 [1] was 11.4 µM (active).

In the case of `CC(c1ccccc1)n1c(-c2cccs2)nc2c(c(=O)c3ccccc3n2C)c1=O` (stereo unspecified), the CC50 (Vero) is reported as > 25 µM (active).

In the case of `Cc1cc(SCc2cc(=O)n3ccsc3n2)nc2ccccc12`, the IC50 [1] is reported as 13.2 µM (active).

With `O=C(O)c1[nH]c2ccc(Cl)cc2c1CC(=O)N1CCN(c2ccccc2)CC1` the IC50 [1] was 13.2 µM (active).

With `COc1ccc(N(C(=O)c2snc(C(N)=O)c2N)C(C(=O)NC2CCCC2)c2ccc3ncccc3c2)cc1` (stereo unspecified) the IC50 [2] was > 20 µM (inactive).

For `COc1ccc(NC(=O)CSc2nc3ccsc3c(=O)n2CCCCCC(=O)O)cc1`, the IC50 [2] was > 20 µM (inactive).

For `CC1CCN(CCCNC(=O)c2ccc3c(Cl)c4c(nc3c2)CCCC4)CC1`, the CC50 (Vero) was > 25 µM (active).

In the case of `CS(=O)(=O)c1sc2nc(-c3ccccc3)cc(-c3ccccc3)c2c1N`, the IC50 (CHO) is reported as > 49.8 µM (inactive).

With `O=C(OCC(=O)N1CCc2ccccc2C1)c1cccc([N+](=O)[O-])c1` the EC50 [4] was 2.37 µM (active), the IC50 (cells) was 23.1 µM (active) and the IC50 (Fatty acid synthase [8]) was 9.14 µM (active). For the same molecule, the IC50 (Fatty acid synthase [9]) was 10.9 µM (active).

With `CCN(CC)S(=O)(=O)c1ccc(C(=O)OCC(=O)NCc2ccco2)cc1` the IC50 [5] was 11.1 µM (active).

With `CCCC(C(=O)NC(C)(C)C)N(CC1CCCO1)C(=O)c1snc(C(N)=O)c1N` (stereo unspecified) the IC50 [2] was > 20 µM (inactive).

With `CC1=C(C(=O)OCCOc2ccccc2)C(c2ccsc2)NC(=O)N1C` (stereo unspecified) the IC50 [1] was 13.2 µM (active).

For `Cc1cc2[nH]c3ccccc3c2c(C)n1`, the EC50 [4] was 1.68 µM (active).

In the case of `COCCN(C(=O)Cn1nnc2ccccc21)C(C(=O)NC1CCCCC1)c1ccc(OC)cc1OC` (stereo unspecified), the IC50 [5] is reported as 14.9 µM (active).

In the case of `Cc1ccc(Sc2ccc(CO)cc2[N+](=O)[O-])cc1`, the EC50 [4] is reported as 3.35 µM (active).

With `CCNc1nc(NCC)n2c(SCC(=O)Nc3cccc(Cl)c3)nnc2n1` the IC50 [5] was 16.2 µM (active).

For `COc1ccc(S(=O)(=O)c2cnc(S)nc2O)cc1Cl`, the IC50 [5] was 8.64 µM (active).

With `CCOC(=O)N1CCN(C(=O)c2ccc3c(c2)N(Cc2ccc(F)cc2)CCS3)CC1` the IC50 [2] was > 20 µM (inactive).

In the case of `CC(C)CC1C(=O)N(Cc2cn(CC3CCCCC3)nn2)CCS(=O)(=O)N1Cc1ccc(-c2ccc(F)nc2)cc1` (stereo unspecified), the AC50 (HEK293) is reported as 32.8 µM (active) and the CC50 (Vero) is reported as 19.6 µM (active).

With `C=C(NC(=O)C(=C)NC(=O)c1csc(C2=NC3c4csc(n4)C4NC(=O)c5csc(n5)C(C(C)(O)C(C)O)NC(=O)C5CSC(=N5)/C(=C/C)NC(=O)C(C(C)O)NC(=O)c5csc(n5)C3(CC2)NC(=O)C(C)NC(=O)C(=C)NC(=O)C(C)NC(=O)C(C(C)CC)NC2C=Cc3c(C(C)O)cc(nc3C2O)C(=O)OC4C)n1)C(N)=O` (stereo unspecified) the GI50 (P388/ADR) was 1.27 µM (inactive), the GI50 (SN12K1) was 0.968 µM (active) and the GI50 (P388) was 0.0407 µM (active).

With `C=C1C(=O)OC2CC(C)C3C4OC4C(O)C3(C)C(O)C12` (stereo unspecified) the GI50 (P388/ADR) was 8.85 µM (inactive), the GI50 (SN12K1) was 24.8 µM (inactive) and the GI50 (P388) was 8.02 µM (inactive).

With `COC(=O)C1=CC[C@@H]2C(C(=O)O)=CO[C@@H](OC3OC(CO)C(O)C(O)C3O)[C@H]12` (stereo partly specified) the GI50 (P388/ADR) was > 139 µM (inactive), the GI50 (SN12K1) was > 300 µM (inactive) and the GI50 (P388) was > 300 µM (inactive).

For `CCC/C=C/C=C\C(=O)O[C@@H]1[C@@H](C)[C@]2(O)[C@@H]3C=C(C)C(=O)[C@H]3CC(COC(C)=O)=C[C@H]2[C@@H]2C(C)(C)[C@]12OC(C)=O`, the GI50 (P388/ADR) was 1.79 µM (inactive), the GI50 (SN12K1) was 1.98 µM (inactive) and the GI50 (P388) was 1.12 µM (inactive).

In the case of `N#Cc1ccc(NC(=O)COC(=O)C2CCC2)cc1`, the AC50 (Paired box protein Pax-8) is reported as 21.7 µM (active).

In the case of `COc1cccc(S(=O)(=O)N(C)C[C@H]2Oc3cc(C4=CCCCC4)ccc3S(=O)(=O)N([C@H](C)CO)C[C@H]2C)c1`, the AC50 [10] is reported as 0.409 µM (active) and the AC50 [11] is reported as 2.06 µM (active).

With `Oc1ccc(/C=N/Nc2nc(-c3cccnc3)nc3ccccc23)c(O)c1` the IC50 [3] was 52.8 µM (not active).
